Experimental data from ChEMBL document CHEMBL3044937, “Design, synthesis and acaricidal activity of novel strobilurin derivatives containing pyrimidine moieties” (2010).

What was measured:
Format in all cases: functional
Tetranychus cinnabarinus [1] = test: Acaricidal activity against Tetranychus cinnabarinus (carmine spider mite) infected kidney bean leaf assessed as mortality at 10 mg/l measured after 48 hr in greenhouse conditions relative to control
Tetranychus cinnabarinus [2] = test: Acaricidal activity against Tetranychus cinnabarinus (carmine spider mite) infected kidney bean leaf assessed as mortality at 40 mg/l measured after 48 hr in greenhouse conditions relative to control
Tetranychus cinnabarinus [3] = test: Acaricidal activity against Tetranychus cinnabarinus (carmine spider mite) infected kidney bean leaf assessed as mortality at 600 mg/l measured after 48 hr in greenhouse conditions relative to control
Tetranychus cinnabarinus [4] = test: Acaricidal activity against Tetranychus cinnabarinus (carmine spider mite) infected kidney bean plant assessed as mortality at 200 g a.i./ha measured after 3 days in field conditions relative to control; conditions: 72 h
Tetranychus cinnabarinus [5] = test: Acaricidal activity against Tetranychus cinnabarinus (carmine spider mite) infected kidney bean plant assessed as mortality at 200 g a.i./ha measured after 21 days in field conditions relative to control; conditions: 504 h
Tetranychus cinnabarinus [6] = test: Acaricidal activity against Tetranychus cinnabarinus (carmine spider mite) infected kidney bean plant assessed as mortality at 200 g a.i./ha measured after 14 days in field conditions relative to control; conditions: 336 h
Tetranychus cinnabarinus [7] = test: Acaricidal activity against Tetranychus cinnabarinus (carmine spider mite) infected kidney bean plant assessed as mortality at 50 g a.i./ha measured after 21 days in field conditions relative to control; conditions: 504 h
Tetranychus cinnabarinus [8] = test: Acaricidal activity against Tetranychus cinnabarinus (carmine spider mite) infected kidney bean plant assessed as mortality at 200 g a.i./ha measured after 7 days in field conditions relative to control; conditions: 168 h
Tetranychus cinnabarinus [9] = test: Acaricidal activity against Tetranychus cinnabarinus (carmine spider mite) infected kidney bean plant assessed as mortality at 100 g a.i./ha measured after 14 days in field conditions relative to control; conditions: 336 h
Tetranychus cinnabarinus [10] = test: Acaricidal activity against Tetranychus cinnabarinus (carmine spider mite) infected kidney bean plant assessed as mortality at 100 g a.i./ha measured after 7 days in field conditions relative to control; conditions: 168 h
Tetranychus cinnabarinus [11] = test: Acaricidal activity against Tetranychus cinnabarinus (carmine spider mite) infected kidney bean plant assessed as mortality at 100 g a.i./ha measured after 21 days in field conditions relative to control; conditions: 504 h
Tetranychus cinnabarinus [12] = test: Acaricidal activity against Tetranychus cinnabarinus (carmine spider mite) infected kidney bean plant assessed as mortality at 50 g a.i./ha measured after 14 days in field conditions relative to control; conditions: 336 h
Tetranychus cinnabarinus [13] = test: Acaricidal activity against Tetranychus cinnabarinus (carmine spider mite) infected kidney bean plant assessed as mortality at 100 g a.i./ha measured after 3 days in field conditions relative to control; conditions: 72 h
Tetranychus cinnabarinus [14] = test: Acaricidal activity against Tetranychus cinnabarinus (carmine spider mite) infected kidney bean plant assessed as mortality at 50 g a.i./ha measured after 3 days in field conditions relative to control; conditions: 72 h
Tetranychus cinnabarinus [15] = test: Acaricidal activity against Tetranychus cinnabarinus (carmine spider mite) infected kidney bean plant assessed as mortality at 50 g a.i./ha measured after 7 days in field conditions relative to control; conditions: 168 h

Structure (SMILES)	mortality at 10 µg/mL (Tetranychus cinnabarinus [1])	mortality at 40 µg/mL (Tetranychus cinnabarinus [2])	mortality at 600 µg/mL (Tetranychus cinnabarinus [3])	other results
CO/C=C(/C(=O)OC)c1ccccc1COc1cc(C(F)(F)F)nc(N2CCOCC2)n1	0%	70%	–	–
CO/C=C(/C(=O)OC)c1ccccc1COc1cc(C)nc(Nc2ccccc2)n1	0%	0%	90%	–
CNC(=O)N(OC)c1ccccc1COc1cc(C(F)(F)F)nc(Nc2ccccc2)n1	0%	0%	0%	–
CO/C=C(/C(=O)OC)c1ccccc1COc1cc(C(F)(F)F)nc(NCc2ccccc2Cl)n1	32%	81%	–	–
CO/C=C(/C(=O)OC)c1ccccc1COc1cc(C2CC2)nc(Nc2ccccc2)n1	0%	0%	90%	–
COC(=O)N(OC)c1ccccc1COc1cc(C(F)(F)F)nc(Nc2ccccc2)n1	0%	0%	0%	–
CO/C=C(/C(=O)OC)c1ccccc1COc1cc(C(F)(F)F)nc(N(C)C)n1	0%	0%	–	–
CCNc1nc(OCc2ccccc2/C(=C\OC)C(=O)OC)cc(C(F)(F)F)n1	0%	0%	–	–
CNC(=O)/C(=N/OC)c1ccccc1COc1cc(C(F)(F)F)nc(Nc2ccccc2)n1	0%	0%	0%	–
CO/N=C(/C(=O)OC)c1ccccc1COc1cc(C(F)(F)F)nc(Nc2ccccc2)n1	0%	0%	100%	–
CO/C=C(/C(=O)OC)c1ccccc1COc1cc(C(F)(F)F)nc(Nc2ccccc2)n1	85%	100%	100%	mortality at 200 g/ha (Tetranychus cinnabarinus [4]): 92.2%; mortality at 200 g/ha (Tetranychus cinnabarinus [5]): 100%; mortality at 200 g/ha (Tetranychus cinnabarinus [6]): 100%; mortality at 50 g/ha (Tetranychus cinnabarinus [7]): 57.5%; mortality at 200 g/ha (Tetranychus cinnabarinus [8]): 96.4%; mortality at 100 g/ha (Tetranychus cinnabarinus [9]): 91.8%; mortality at 100 g/ha (Tetranychus cinnabarinus [10]): 53.1%; mortality at 100 g/ha (Tetranychus cinnabarinus [11]): 94.9%; mortality at 50 g/ha (Tetranychus cinnabarinus [12]): 87.2%; mortality at 100 g/ha (Tetranychus cinnabarinus [13]): 78.3%; mortality at 50 g/ha (Tetranychus cinnabarinus [14]): 62.3%; mortality at 50 g/ha (Tetranychus cinnabarinus [15]): 65.3%
CO/C=C(/C(=O)OC)c1ccccc1COc1cc(C(F)(F)F)nc(NCc2ccccc2)n1	28%	65%	–	–
CO/C=C(/C(=O)OC)c1ccccc1COc1cc(C(F)(F)F)nc(N2CCCCC2)n1	0%	0%	–	–
CO/C=C(/C(=O)OC)c1ccccc1COc1nc(Nc2ccccc2)nc(C)c1C	0%	0%	0%	–
CNc1nc(OCc2ccccc2/C(=C\OC)C(=O)OC)cc(C(F)(F)F)n1	0%	0%	–	–
CCN(CC)c1nc(OCc2ccccc2/C(=C\OC)C(=O)OC)cc(C(F)(F)F)n1	21%	65%	–	–
CO/C=C(/C(=O)OC)c1ccccc1COc1cc(C(F)(F)F)nc(NC2CC2)n1	0%	0%	–	–
CO/C=C(/C(=O)OC)c1ccccc1COc1cc(C(F)(F)F)nc(NC(C)C)n1	64%	95%	–	–
CO/C=C(/C(=O)OC)c1ccccc1COc1cc(C(F)(F)F)nc(OC(C)C)n1	95%	100%	100%	mortality at 50 g/ha (Tetranychus cinnabarinus [7]): 98.2%; mortality at 100 g/ha (Tetranychus cinnabarinus [9]): 90.4%; mortality at 100 g/ha (Tetranychus cinnabarinus [10]): 88%; mortality at 100 g/ha (Tetranychus cinnabarinus [11]): 97.9%; mortality at 50 g/ha (Tetranychus cinnabarinus [12]): 93.2%; mortality at 100 g/ha (Tetranychus cinnabarinus [13]): 100%; mortality at 50 g/ha (Tetranychus cinnabarinus [14]): 100%; mortality at 50 g/ha (Tetranychus cinnabarinus [15]): 77.6%
CO/C=C(/C(=O)OC)c1ccccc1COc1cc(C(F)(F)F)nc(NC2CCCCC2)n1	70%	100%	–	–
